In patent US20190116835A1, “Sweetness and Taste Improvement of Steviol Glycoside or Mogroside Sweeteners with Flavonids” (The Coca-Cola Company, priority 2016, published 2019):

Tests used:
[1] = Taste evaluation by trained panelists: sweetness enhancement of Rebaudioside M, compared against sucrose beverages; type: in vivo, human; settings: beverage containing 150 ppm Rebaudioside M in acidic water, no Test Mixture 1
Procedure: The ability of the following compounds to enhance the sweetness of Rebaudioside M was evaluated:
(§1) Sample were prepared with the following ingredients:
(§2) Ingredients were added to water or water with Test Mixture 1 while stirring until solids were visibly dissolved and the sample was poured into a glass bottle and stored at 4° C.
Trained panelists compared the taste and sweetness profiles of (i) the beverage containing 150 ppm Rebaudioside M (Table 3) and (ii) the beverage containing 40 ppm Test Mixture 1 and 150 ppm Rebaudioside M (Table 4) against the 6%, 8%, and 10% sucrose beverages (Table 5).
(§3) Bottles were removed from the refrigerator and about 25 ml of beverage was poured into 4 oz-plastic cups. Panelists were given mineral water to rinse their mouth before and between tastings. Unsalted crackers were also given to panelists to eat followed by rinsing their mouth with mineral water before tasting the next sample. Panelists were instructed to sip, evaluate the sweetness, and then spit the samples in cups provided for that purpose.

[2] = Taste evaluation by trained panelists: sweetness enhancement of Siamenoside I, compared against sucrose beverages; type: in vivo, human; settings: beverage containing 150 ppm Siamenoside I in acidic water, no Test Mixture 1
Procedure: The ability of Text Mixture 1 to enhance the sweetness of Siamenoside I was evaluated.
as §1, §2
The trained panelists then compared the taste and sweetness profiles of (i) the beverage containing 150 ppm Siamenoside I (Table 3) and (ii) the beverage containing 40 ppm Test Mixture 1 and 150 ppm Siamenoside I (Table 4) against the 6%, 8%, and 10% sucrose beverages (Table 5).
as §3

Structure (SMILES) | sweetness, as sweet as sucrose beverage [1] | sweetness, equivalent to sucrose beverages [2]
C=C1C[C@@]23CC[C@H]4[C@@](C)(CCC[C@@]4(C)C(=O)O[C@@H]4O[C@H](CO)[C@@H](O)[C@H](O[C@@H]5O[C@H](CO)[C@@H](O)[C@H](O)[C@H]5O)[C@H]4O[C@@H]4O[C@H](CO)[C@@H](O)[C@H](O)[C@H]4O)[C@@H]2CC[C@]1(O[C@@H]1O[C@H](CO)[C@@H](O)[C@H](O[C@@H]2O[C@H](CO)[C@@H](O)[C@H](O)[C@H]2O)[C@H]1O[C@@H]1O[C@H](CO)[C@@H](O)[C@H](O)[C@H]1O)C3 [Rebaudioside M, rebaudioside M] | 5-6 % sucrose | 
C[C@H](CC[C@@H](O[C@@H]1O[C@H](CO[C@@H]2O[C@H](CO)[C@@H](O)[C@H](O)[C@H]2O)[C@@H](O)[C@H](O)[C@H]1O[C@@H]1O[C@H](CO)[C@@H](O)[C@H](O)[C@H]1O)C(C)(C)O)[C@H]1CC[C@@]2(C)[C@@H]3CC=C4[C@@H](CC[C@H](O[C@@H]5O[C@H](CO)[C@@H](O)[C@H](O)[C@H]5O)C4(C)C)[C@]3(C)[C@H](O)C[C@]12C [Siamenoside I, siamenoside I] |  | 4%-6%
